Results published in patent US20260200990A1, “MODIFIED LONG PEPTIDES SUITABLE FOR USE IN IMMUNISATION” (ISABELLA PHARMA B.V., priority 2022, published 2026).
Ends that are not written are not given here.

Test system: T cells cultured from PBMC from healthy donors
Assay: T cell induction by PRAME-based SLPs, IFNy ELISpot (test 1 and test 2)
Design: species or system human; key to ELISPOT IFNy / ELISPOT IFNy, summary of the results in the table: − (negative); + (positive); When at least one donor had a positive response, this is denoted as POS
Conditions: for ELISPOT IFNy, summary of the results in the table: Table 5, all donors; for IFNy response in in vitro human T cell cultures: summary over the donors tested
Description: The capacity of human-PRAME-based SLPs to activate T cells was studied. The biological activity of the synthesized and purified SLPs was tested using PBMC from healthy donors. Monocytes were isolated using anti-CD14 beads by magnet activated cell sorting (MACS) following the protocol of the supplier (Miltenyi Biotec). In short, PBMCs were isolated by centrifugation over a Ficoll gradient and cryopreserved. To generate dendritic cells (DCs), approximately […] thawed PBMC were used for the isolation of CD14 positive cells. The cells were cultured for three days at 37° C. in 2 ml/well of IMDM 4% human serum (HS) containing 800 U/ml GM-CSF and 500 U/ml IL-4 (Peprotech). After 3 days 1 mL/well of IMDM 4% HS with GM-CSF (2400 U/mL) and IL-4 (1500 U/mL) was added to the monocytes-derived DCs and these adhered cells were cultured for an additional 3 days. On day 6, long peptides distributed over 2 pools were added to monocyte-derived DCs of naive donors at a 13 μM concentration and incubated overnight at 37° C. The next day (day 7) peptide-loaded DCs were harvested, irradiated (1000 rad), washed and mixed in a 1:10 ratio with autologous PBMC in IMDM 8% human serum in the presence of IL-7 (10 ng/ml) and IL-12p70 (100 μg/mL).
On day 10 new DCs were generated and loaded, after 6 days, with SLPs on day 16 as described above. The next day, these peptide-loaded DCs were harvested, irradiated (1000 rad) and washed. Also the cultured T cells were harvested. Both were counted and mixed in a 1:10 ratio (DC:T) in IMDM 8% human serum in the presence of IL-7 (10 ng/ml) and IL-12p70 (100 μg/mL) for the first restimulation. On the same day, new DCs were generated as described above that were loaded with SLPs on day 23 as described above. The next day, peptide-loaded DCs were harvested, irradiated (1000 rad) and washed. Also the cultured and restimulated T cells were harvested. Both were counted and mixed in a 1:10 ratio (DC:T) in IMDM 8% human serum in the presence of IL-7 (10 ng/ml) and IL-12p70 (100 μg/mL) for the second restimulation.
On this day 24, also test 1 was started in which DCs loaded with individual SLPs were cultured with harvested T cells from restimulation 1. For test 1, DCs and harvested T cells were cultured in a 1:10 ratio for 2 days after which cells were transferred to a coated ELISpot plate (see description below). On day 24, new DCs were generated as described above that were loaded with SLPs on day 30 as described above. The next day, peptide-loaded DCs were harvested, irradiated (1000 rad) and washed. Also the cultured twice restimulated T cells were harvested. Both were counted and mixed in a 1:10 ratio (DC:T) in IMDM 8% human serum in the presence of IL-2 (30 IU/mL) and IL-12p70 (100 μg/mL) for the third restimulation.
On day 31, also test 2 was started in which DCs loaded with individual SLPs were cultured with harvested T cells from restimulation 2. For test 2, DCs and harvested T cells were cultured in a 1:10 ratio for 2 days after which cells were transferred to a coated ELISpot plate (see description below).
The T cell cultures were restimulated three times in 1-week cycles using peptide loaded autologous moDCs. After the 2nd and 3rd restimulation, reactivity towards single SLPs was tested (test 1 and test 2, respectively). Reactivity was determined by measuring IFNy production using ELISpot.
For ELISpot analysis, multiscreen plates were coated with an IFNy coating antibody overnight at 4° C. The next day, the plate was washed 4× with PBS and blocking was done using IMDM 8% HS at 37° C. for at least one hour. Each sample was tested in triplicate. As a positive control, phytoheamagglutinin (PHA, 1 μg/mL) was added to cells that were not stimulated with SLP after thawing. The plate was cultured overnight at 37° C. Thereafter, cells were discarded and the plate was washed using PBS/0.05% Tween-20. The IFNy detection antibody was diluted and added to each well and incubated for 2 hours at room temperature. […]

[1] = donor BC290, Test 1, 2 peptide pools
[2] = donor BC290, Test 2, 2 peptide pools
[3] = donor BC298, Test 1, 2 peptide pools
[4] = donor BC298, Test 2, 2 peptide pools
[5] = donor BC305, Test 1, 2 peptide pools
[6] = donor BC305, Test 2, 2 peptide pools
[7] = donor BC306, Test 1, 2 peptide pools
[8] = donor BC306, Test 2, 2 peptide pools
[9] = donor BC312, Test 1, 2 peptide pools
[10] = donor BC312, Test 2, 2 peptide pools
[11] = donor BC315, Test 1, 2 peptide pools
[12] = donor BC315, Test 2, 2 peptide pools
[13] = donor BC321, Test 1, 2 peptide pools
[14] = donor BC321, Test 2, 2 peptide pools
[15] = donor BC228, Test 1, pool of 3 peptides
[16] = donor BC228, Test 2, pool of 3 peptides
[17] = donor BC303, Test 1, pool of 3 peptides
[18] = donor BC303, Test 2, pool of 3 peptides
[19] = donor BC314, Test 1, pool of 3 peptides
[20] = donor BC314, Test 2, pool of 3 peptides
[21] = donor BC320, Test 1, pool of 3 peptides
[22] = donor BC320, Test 2, pool of 3 peptides
[23] = donor BC322, Test 1, pool of 3 peptides
[24] = donor BC322, Test 2, pool of 3 peptides
[25] = donor BC323, Test 1, pool of 3 peptides
[26] = donor BC323, Test 2, pool of 3 peptides

Row | Sequence | ELISPOT IFNy, summary of the results in the table | ELISPOT IFNy [1] | ELISPOT IFNy [2] | ELISPOT IFNy [3] | ELISPOT IFNy [4] | ELISPOT IFNy [5] | ELISPOT IFNy [6] | ELISPOT IFNy [7] | ELISPOT IFNy [8] | ELISPOT IFNy [9] | ELISPOT IFNy [10] | ELISPOT IFNy [11] | ELISPOT IFNy [12] | ELISPOT IFNy [13] | ELISPOT IFNy [14] | ELISPOT IFNy [15] | ELISPOT IFNy [16] | ELISPOT IFNy [17] | ELISPOT IFNy [18] | ELISPOT IFNy [19] | further results
1 | LKAMVQAWPFTCLPLGVLMKGQHLHLETFKAVL (LKAMVQAWPFTC(cysteinyl)LPLGVLMKGQHLHLETFKAVL; listed as Homo sapiens) [SEQ ID NO: 38, PRAME-based SLP, cysteinylated form tested] | POS | − | − | + | + | − | − | − | − | − | − | − | − | + | − |  |  |  |  |  | 
2 | VLSLSGVMLTDVSPEPLQALLERASATLQDLVFDE (listed as Homo sapiens) [SEQ ID NO: 50, PRAME-based SLP of WO2008118017, reference compound] |  | − | − | − | − | − | − | − | − | − | − | − | − | − | − | − | − | − | − | − | ELISPOT IFNy [20]: −; ELISPOT IFNy [21]: −; ELISPOT IFNy [22]: −; ELISPOT IFNy [23]: −; ELISPOT IFNy [24]: −; ELISPOT IFNy [25]: −; ELISPOT IFNy [26]: −; IFNy response in in vitro human T cell cultures: did not show convincing responses
3 | VLYPVPLESYEDIHGTLHLERLAYLHARLREL (listed as Homo sapiens) [SEQ ID NO: 41, PRAME-based SLP] | POS | − | − | − | − | − | − | − | − | − | − | + | + | − | − |  |  |  |  |  | 
4 | LETFKAVLDGLDVLLAQEVRPRRWKLQVLDLRK (listed as Homo sapiens) [SEQ ID NO: 45, PRAME-based SLP of WO2008118017, reference compound] |  |  |  | − | − | − | − | − | − | − | − |  |  | − | − | − | − | − | − | − | ELISPOT IFNy [20]: −; ELISPOT IFNy [21]: −; ELISPOT IFNy [22]: −; ELISPOT IFNy [23]: −; ELISPOT IFNy [24]: −; ELISPOT IFNy [25]: −; ELISPOT IFNy [26]: −; IFNy response in in vitro human T cell cultures: did not show convincing responses
5 | LPSLSHCSQLTTLSFYGNSISISALQSLLQHLIGL (LPSLSHC(cysteinyl)SQLTTLSFYGNSISISALQSLLQHLIGL; listed as Homo sapiens) [SEQ ID NO: 44, PRAME-based SLP, cysteinylated form tested] |  |  |  | − | + | − | − | − | − | − | − |  |  | + | − |  |  |  |  |  | 
6 | VWTSPRRLVELAGQSLLKDEALAIAALELLPRELF (listed as Homo sapiens) [SEQ ID NO: 42, PRAME-based SLP] |  | − | − | + | + | − | − | − | − | − | − | − | − | + | − |  |  |  |  |  | 
7 | PTLAKFSPYLGQMINLRRLLLSHIHASSYISPE (listed as Homo sapiens) [SEQ ID NO: 37, PRAME-based SLP] |  | + | + | − | − | + | − | − | − | − | − | − | − | − | − |  |  |  |  |  | 
8 | ALYVDSLFFLRGRLDQLLRHVMNPLETLSITNCRL (ALYVDSLFFLRGRLDQLLRHVMNPLETLSITNC(cysteinyl)RL; listed as Homo sapiens) [SEQ ID NO: 40, PRAME-based SLP, cysteinylated form tested] | POS |  |  | − | − | − | − | − | − | − | − |  |  | + | + |  |  |  |  |  | 
9 | KEGACDELFSYLIEKVKRKKNVLRL (KEGAC(cysteinyl)DELFSYLIEKVKRKKNVLRL; listed as Homo sapiens) [SEQ ID NO: 39, PRAME-based SLP, cysteinylated form tested] |  |  |  | − | − | − | − | − | − | − | − |  |  | − | − | − | − | − | − | + | ELISPOT IFNy [20]: +; ELISPOT IFNy [21]: −; ELISPOT IFNy [22]: −; ELISPOT IFNy [23]: −; ELISPOT IFNy [24]: −; ELISPOT IFNy [25]: −; ELISPOT IFNy [26]: −; IFNy response in in vitro human T cell cultures: positive IFNy response
